Several values for one entry are separate records, joined by “and”; a condition that tells them apart may be missing. Equal values may be shown once. Read-outs that look alike come from different tables or passages of the source.
What was measured:
P. aeruginosa PA 107092 [1] = assay: Time-kill assay; type: cell-based, Pseudomonas aeruginosa; conditions: monotherapy, 8 μg/mL
Protocol: To study the time-dependent killing effects of the drug combinations, the time-kill kinetics were assessed. The time-kill assay was performed following the 8 μM (2 μg/mL) concentration of avibactam used in the checkerboard assay. […] This concentration also corresponds to the susceptibility breakpoint of both β-lactams.
For the preparation of the bacterial solution, an overnight grown culture was diluted in 0.85% saline solution and adjusted to 0.5 McFarland turbidity. […] The culture tubes were incubated at 37 °C, shaking at 250 rpm. At the appointed time intervals, a 100-μL aliquot was taken from each tube, serially diluted in phosphate-buffered saline (PBS) and plated on LB agar plates. The plates were incubated at 37 °C, and bacterial colonies were counted after 18 h. The bactericidal or bacteriostatic activity is determined based on the decrease in CFU over the time period. Bactericidal activity corresponds to ≥3 log10 reduction in CFU/mL, while bacteriostatic activity corresponds to <3 log10 reduction in CFU/mL.

A. baumannii AB031 = assay: Checkerboard assay; type: cell-based, Acinetobacter baumannii; conditions: Acinetobacter baumannii, AB031, agent alone, one value per checkerboard plate
Protocol: (§1) The adjuvant properties of the guanidinylated polymyxins were evaluated using the checkerboard assay as previously described. The bacterial solution was prepared as described in the antimicrobial susceptibility assay. The antibiotic of interest and the adjuvant were serially diluted two-fold along the x- and y-axis on a 96-well plate, respectively, resulting in varying concentrations of both agents in each well. Equal volumes of bacterial solution were added to the designated wells. The well consisting of bacterial solution served as the positive control, while the wells containing only media served as the negative control. The plate was then incubated at 37 °C for 18 h. After incubation, an Emax Plus microplate reader (Molecular Devices, Union City, CA, USA) was used to measure the OD at a wavelength of 590 nm to confirm the turbidity. The fractional inhibitory concentration (FIC) index was then determined to establish the relationship between the antibiotic and adjuvant. The FIC index corresponds to the sum of the FICs of the antibiotic and adjuvant. The FIC of each agent is calculated by dividing its MIC when it is used in combination by its MIC when used alone. FIC indices ≤0.5, 0.5 < x ≤ 4 and >4 indicate synergy, additivity and antagonism, respectively.

P. aeruginosa 101243 = assay: Checkerboard assay; type: cell-based, Pseudomonas aeruginosa; conditions: one value per checkerboard plate
Protocol: as §1

[2] = tested on: P. aeruginosa P264-104354; assay: Checkerboard assay; type: cell-based, Pseudomonas aeruginosa; conditions: Pseudomonas aeruginosa, P264104354, agent alone, one value per checkerboard plate
Protocol: as §1

[3] = tested on: P. aeruginosa P262-101856; assay: Checkerboard assay; type: cell-based, Pseudomonas aeruginosa; conditions: one value per checkerboard plate
Protocol: as §1

P. aeruginosa P259-96918 = assay: Checkerboard assay; type: cell-based, Pseudomonas aeruginosa; conditions: Pseudomonas aeruginosa, P25996918; agent alone, one value per checkerboard plate
Protocol: as §1

E. coli ATCC 25922 = assay: microbe, parasite or virus in culture; type: cell-based, Escherichia coli
Protocol: as §1

A. baumannii AB027 = assay: microbe, parasite or virus in culture; type: cell-based, Acinetobacter baumannii; conditions: Acinetobacter baumannii, AB027, agent alone, one value per checkerboard plate
Protocol: as §1

A. baumannii 92247 = assay: microbe, parasite or virus in culture; type: cell-based, Acinetobacter baumannii; conditions: one value per checkerboard plate
Protocol: as §1

A. baumannii ATCC 17978 = assay: microbe, parasite or virus in culture; type: cell-based, Acinetobacter baumannii
Protocol: as §1

A. baumannii 110193 = assay: microbe, parasite or virus in culture; type: cell-based, Acinetobacter baumannii; conditions: Acinetobacter baumannii, 110193, agent alone, one value per checkerboard plate
Protocol: as §1

P. aeruginosa PAO1 = assay: microbe, parasite or virus in culture; type: cell-based, Pseudomonas aeruginosa
Protocol: as §1

P. aeruginosa 114228 = assay: microbe, parasite or virus in culture; type: cell-based, Pseudomonas aeruginosa; conditions: one value per checkerboard plate
Protocol: as §1

P. aeruginosa PA 88949 = type: cell-based, Pseudomonas aeruginosa; conditions: one value per checkerboard plate
Protocol: as §1

P. aeruginosa PA 86052 = type: cell-based, Pseudomonas aeruginosa; conditions: one value per checkerboard plate
Protocol: as §1

P. aeruginosa PA 107092 [4] = type: cell-based, Pseudomonas aeruginosa
Protocol: as §1

P. aeruginosa PA 109084 = type: cell-based, Pseudomonas aeruginosa
Protocol: as §1

E. coli 107115 = assay: microbe, parasite or virus in culture; type: cell-based, Escherichia coli; conditions: Escherichia coli, 107115, agent alone, one value per checkerboard plate
Protocol: as §1

[5] = one value per checkerboard plate

CC(C)(O/N=C(\C(=O)N[C@@H]1C(=O)N2C(C(=O)[O-])=C(C[n+]3ccccc3)CS[C@H]12)c1csc(N)n1)C(=O)O [Ceftazidime] was tested, and the “log10 increase (bacterial growth) over 24 h” value (P. aeruginosa PA 107092 [1]) was ~ 2 log10, the MIC (A. baumannii AB031) was 32 µg/mL and the MIC (P. aeruginosa 101243; Pseudomonas aeruginosa, 101243, agent alone) was 64 µg/mL. It also gave an MIC alone (P. aeruginosa 101243; agent alone) of 32 µg/mL, an MIC [2] of 64 µg/mL and an MIC ([3]; Pseudomonas aeruginosa, P262101856, agent alone) of 8 µg/mL. The MIC alone ([3]; agent alone) was 16 µg/mL, the MIC (P. aeruginosa P259-96918) was 512 µg/mL and the “Absolute MIC of antibiotic at 2 μg/mL GCol” value (E. coli ATCC 25922) was 0.063 µg/mL. For the same compound, the “Absolute MIC of antibiotic at 2 μg/mL GPMB” value (E. coli ATCC 25922) was 0.063 µg/mL, the MIC (E. coli ATCC 25922; Escherichia coli, ATCC25922, 18 h, agent alone, one value per checkerboard plate, read-out: MIC alone) was 0.25 µg/mL and the MIC (A. baumannii AB027) was 2050 µg/mL. The MIC (A. baumannii 92247; Acinetobacter baumannii, 92247, agent alone) was 16 µg/mL, the MIC alone (A. baumannii 92247; agent alone) was 32 µg/mL and the “Absolute MIC of antibiotic at 2 μg/mL GCol” value (A. baumannii ATCC 17978) was 4 µg/mL. The “Absolute MIC of antibiotic at 2 μg/mL GPMB” value (A. baumannii ATCC 17978) was 4 µg/mL, the MIC (A. baumannii ATCC 17978; Acinetobacter baumannii, ATCC17978, 18 h, agent alone, one value per checkerboard plate, read-out: MIC alone) was 16 µg/mL and the MIC (A. baumannii 110193) was 64 µg/mL. For the same compound, the “Absolute MIC of antibiotic at 4 μg/mL GCol” value (P. aeruginosa PAO1) was 0.25 µg/mL, the MIC (P. aeruginosa PAO1; Pseudomonas aeruginosa, PAO1, 18 h, agent alone, one value per checkerboard plate, read-out: MIC alone) was 2 µg/mL and the MIC (P. aeruginosa 114228; Pseudomonas aeruginosa, 114228, agent alone) was 4 µg/mL. It also gave an MIC alone (P. aeruginosa 114228; agent alone) of 8 µg/mL, an MIC antibiotic alone (P. aeruginosa PA 88949) of 32 µg/mL and an MIC antibiotic alone (P. aeruginosa PA 86052) of 64 µg/mL. For the same compound, the MIC antibiotic alone (P. aeruginosa PA 107092 [4]; [5]) was 64 µg/mL, the MIC antibiotic alone (P. aeruginosa PA 107092 [4]; plates with 8 μM avibactam) was 16 µg/mL and 8 µg/mL and the MIC antibiotic alone (P. aeruginosa PA 109084; [5]) was 64 µg/mL and 128 µg/mL. For the same compound, the MIC antibiotic alone (P. aeruginosa PA 109084; plates with 8 μM avibactam) was 16 µg/mL and the MIC (E. coli 107115) was 512 µg/mL.

— PMC9598282 (Antibiotics, 2022)
